How the values were obtained:
narcotised guinea pigs = experiment: Blood pressure experiments on guinea pigs, i.v.; assay type: in vivo, guinea pig; conditions: for blood pressure before: before administration
[1] = Acute toxicity, intravenous, mice; assay type: in vivo; conditions: mouse, in vivo; intravenous, within 24 hours; read-out: Evaluated LD50-range
female NMRI-albino mice = experiment: Acute toxicity, intravenous, mice; assay type: in vivo; conditions: within 24 hours
[2] = tested on: isolated guinea pig hearts; experiment: Experiments on Langendorff hearts (coronary flowthrough, inotropism, frequency); conditions: Cavia porcellus, read-out: flowthrough, percentage change with regard to the initial value
Description: After reaching the stationary state in the 30th minute, the hearts were each perfused with 50 ml. tyrode solution with a content of test substance of, in each case, 25 μg./ml. Each test substance was tested on 3-6 hearts.
In each case, there was measured the inotropism, the flowthrough and the frequency, whereby the values given in Table I are average values of the percentage changes in comparison with the initial values.

mongrel cats [3] = experiment: Inotropic and heart-circulatory effectiveness on narcotised cats, intravenous; assay type: in vivo, cat; conditions: 6 animals
mongrel cats [4] = experiment: Inotropic and heart-circulatory effectiveness on narcotised cats, intraduodenal; assay type: in vivo, cat; conditions: 5 mg/kg intraduodenal
[5] = 0.25 mg/kg i.v., before administration

N[C@@H]1CO[C@H]2[C@@H]1OC[C@@H]2O[N+](=O)[O-] [2 b]
blood pressure after (narcotised guinea pigs; 0.25 mg/kg i.v.): 50.25 ± 8.19 mm.Hg | blood pressure Δ (narcotised guinea pigs; 0.25 mg/kg i.v.): -5.75 mm.Hg | blood pressure before (narcotised guinea pigs; 0.25 mg/kg i.v.): 56.00 ± 7.91 mm.Hg | blood pressure after (narcotised guinea pigs; 1.00 mg/kg i.v.): 41.50 ± 4.66 mm.Hg | blood pressure Δ (narcotised guinea pigs; 1.00 mg/kg i.v.): -14.25 mm.Hg | blood pressure after (narcotised guinea pigs; 2.50 mg/kg i.v.): 31.75 ± 3.09 mm.Hg | blood pressure Δ (narcotised guinea pigs; 2.50 mg/kg i.v.): -19.50 mm.Hg | LD50 at 24 h [1]: > 200 mg/kg | Frequency of death (female NMRI-albino mice; 200 mg/kg i.v.): 0/3 | activation at 25 µg/mL [2]: 25.9%

CN1CCN([C@H]2CO[C@H]3[C@@H]2OC[C@@H]3O[N+](=O)[O-])CC1 [17 b]
blood pressure after (narcotised guinea pigs; 0.25 mg/kg i.v.): 59.00 ± 2.27 mm.Hg | blood pressure Δ (narcotised guinea pigs; 0.25 mg/kg i.v.): -4.50 mm.Hg | blood pressure before (narcotised guinea pigs; 0.25 mg/kg i.v.): 63.50 ± 3.77 mm.Hg | blood pressure after (narcotised guinea pigs; 1.00 mg/kg i.v.): 46.25 ± 3.07 mm.Hg | blood pressure Δ (narcotised guinea pigs; 1.00 mg/kg i.v.): -17.75 mm.Hg | blood pressure after (narcotised guinea pigs; 2.50 mg/kg i.v.): 38.25 ± 4.55 mm.Hg | blood pressure Δ (narcotised guinea pigs; 2.50 mg/kg i.v.): -23.50 mm.Hg | LD50 at 24 h [1]: > 200 mg/kg | Frequency of death (female NMRI-albino mice; 200 mg/kg i.v.): 0/3 | activation at 25 µg/mL [2]: 25.1%

O=[N+]([O-])O[C@H]1CO[C@H]2[C@@H]1OC[C@@H]2N1CCCC1 [14 b]
blood pressure after (narcotised guinea pigs; 0.25 mg/kg i.v.): 65.75 ± 0.75 mm.Hg | blood pressure Δ (narcotised guinea pigs; 0.25 mg/kg i.v.): -5.50 mm.Hg | blood pressure before (narcotised guinea pigs; 0.25 mg/kg i.v.): 71.25 ± 0.63 mm.Hg | blood pressure after (narcotised guinea pigs; 1.00 mg/kg i.v.): 56.25 ± 2.17 mm.Hg | blood pressure Δ (narcotised guinea pigs; 1.00 mg/kg i.v.): -14.00 mm.Hg | blood pressure after (narcotised guinea pigs; 2.50 mg/kg i.v.): 49.25 ± 3.94 mm.Hg | blood pressure Δ (narcotised guinea pigs; 2.50 mg/kg i.v.): -18.50 mm.Hg | LD50 at 24 h [1]: ≥ 200 mg/kg | Frequency of death (female NMRI-albino mice; 200 mg/kg i.v.): 1/3 | activation at 25 µg/mL [2]: 25.4%

O=[N+]([O-])O[C@H]1CO[C@H]2[C@@H]1OC[C@@H]2NCC(O)COc1cccc(C(F)(F)F)c1 (stereo partly drawn) [Example 52, 5-[2-Hydroxy-3-(3-trifluoromethylphenoxy)-propylamino]-5-desoxy-1.4;3.6-dianhydro-L-iditol 2-nitrate]
blood pressure after (narcotised guinea pigs; 0.25 mg/kg i.v.): 60.50 ± 1.32 mm.Hg | blood pressure Δ (narcotised guinea pigs; 0.25 mg/kg i.v.): -5.00 mm.Hg | blood pressure before (narcotised guinea pigs; 0.25 mg/kg i.v.): 65.50 ± 1.50 mm.Hg | blood pressure after (narcotised guinea pigs; 1.00 mg/kg i.v.): 49.25 ± 4.37 mm.Hg | blood pressure Δ (narcotised guinea pigs; 1.00 mg/kg i.v.): -11.75 mm.Hg | blood pressure after (narcotised guinea pigs; 2.50 mg/kg i.v.): 39.00 ± 4.38 mm.Hg | blood pressure Δ (narcotised guinea pigs; 2.50 mg/kg i.v.): -17.75 mm.Hg | blood pressure before (mongrel cats [3]; [5]): 91.7 mm.Hg | dp/dt (inotropism) before (mongrel cats [3]; [5]): 6150 mm.Hg/sec | heart frequency before (mongrel cats [3]; [5]): 216.7 min⁻¹ | blood pressure WD (mongrel cats [3]; 0.25 mg/kg i.v.): 5.6 min | blood pressure after (mongrel cats [3]; 0.25 mg/kg i.v.): 77.2 mm.Hg | blood pressure Δ (mongrel cats [3]; 0.25 mg/kg i.v.): -14.5 mm.Hg | dp/dt (inotropism) after (mongrel cats [3]; 0.25 mg/kg i.v.): 5517 mm.Hg/sec | dp/dt (inotropism) Δ (mongrel cats [3]; 0.25 mg/kg i.v.): -633 mm.Hg/sec | dp/dt WD (mongrel cats [3]; 0.25 mg/kg i.v.): 4.2 min | heart frequency after (mongrel cats [3]; 0.25 mg/kg i.v.): 216.7 min⁻¹ | heart frequency Δ (mongrel cats [3]; 0.25 mg/kg i.v.): 0 min⁻¹ | blood pressure WD (mongrel cats [3]; 0.50 mg/kg i.v.): 11.7 min | blood pressure after (mongrel cats [3]; 0.50 mg/kg i.v.): 74.8 mm.Hg | blood pressure Δ (mongrel cats [3]; 0.50 mg/kg i.v.): -19.9 mm.Hg | dp/dt (inotropism) after (mongrel cats [3]; 0.50 mg/kg i.v.): 5133 mm.Hg/sec | dp/dt (inotropism) Δ (mongrel cats [3]; 0.50 mg/kg i.v.): -850 mm.Hg/sec | dp/dt WD (mongrel cats [3]; 0.50 mg/kg i.v.): 10.5 min | heart frequency after (mongrel cats [3]; 0.50 mg/kg i.v.): 217.0 min⁻¹ | heart frequency Δ (mongrel cats [3]; 0.50 mg/kg i.v.): 0 min⁻¹ | blood pressure WD (mongrel cats [3]; 1.00 mg/kg i.v.): 14.7 min | blood pressure after (mongrel cats [3]; 1.00 mg/kg i.v.): 69.2 mm.Hg | blood pressure Δ (mongrel cats [3]; 1.00 mg/kg i.v.): -26.5 mm.Hg | dp/dt (inotropism) after (mongrel cats [3]; 1.00 mg/kg i.v.): 4250 mm.Hg/sec | dp/dt (inotropism) Δ (mongrel cats [3]; 1.00 mg/kg i.v.): -1333 mm.Hg/sec | dp/dt WD (mongrel cats [3]; 1.00 mg/kg i.v.): 15.3 min | heart frequency after (mongrel cats [3]; 1.00 mg/kg i.v.): 217.3 min⁻¹ | heart frequency Δ (mongrel cats [3]; 1.00 mg/kg i.v.): -1.0 min⁻¹ | blood pressure WD (mongrel cats [3]; 2.50 mg/kg i.v.): > 10 min | blood pressure after (mongrel cats [3]; 2.50 mg/kg i.v.): 60.5 mm.Hg | blood pressure Δ (mongrel cats [3]; 2.50 mg/kg i.v.): -34.5 mm.Hg | dp/dt (inotropism) after (mongrel cats [3]; 2.50 mg/kg i.v.): 2733 mm.Hg/sec | dp/dt (inotropism) Δ (mongrel cats [3]; 2.50 mg/kg i.v.): -2500 mm.Hg/sec | dp/dt WD (mongrel cats [3]; 2.50 mg/kg i.v.): > 10 min | heart frequency after (mongrel cats [3]; 2.50 mg/kg i.v.): 204.0 min⁻¹ | heart frequency Δ (mongrel cats [3]; 2.50 mg/kg i.v.): -14.3 min⁻¹ | blood pressure (mongrel cats [4]; 0 min after admin.): 113.8 ± 5.8 mm.Hg | dp/dt (inotropism) (mongrel cats [4]; 0 min after admin.): 6540 ± 631 mm.Hg/sec | heart frequency (mongrel cats [4]; 0 min after admin.): 209.6 ± 15.7 min⁻¹ | blood pressure (mongrel cats [4]; 10 min after admin.): 100.4 mm.Hg | blood pressure Δ (mongrel cats [4]; 10 min after admin.): -13.4 mm.Hg | dp/dt (inotropism) (mongrel cats [4]; 10 min after admin.): 6200 ± 374 mm.Hg/sec | dp/dt (inotropism) Δ (mongrel cats [4]; 10 min after admin.): -340 mm.Hg/sec | heart frequency (mongrel cats [4]; 10 min after admin.): 212.4 ± 13.8 min⁻¹ | blood pressure (mongrel cats [4]; 30 min after admin.): 95.6 ± 9.9 mm.Hg | blood pressure Δ (mongrel cats [4]; 30 min after admin.): -18.2 mm.Hg | dp/dt (inotropism) (mongrel cats [4]; 30 min after admin.): 6120 ± 270 mm.Hg/sec | dp/dt (inotropism) Δ (mongrel cats [4]; 30 min after admin.): -440 mm.Hg/sec | heart frequency (mongrel cats [4]; 30 min after admin.): 212.8 ± 13.1 min⁻¹ | blood pressure (mongrel cats [4]; 60 min after admin.): 95.8 ± 8.0 mm.Hg | blood pressure Δ (mongrel cats [4]; 60 min after admin.): -18.0 mm.Hg | dp/dt (inotropism) (mongrel cats [4]; 60 min after admin.): 5480 ± 314 mm.Hg/sec | dp/dt (inotropism) Δ (mongrel cats [4]; 60 min after admin.): -1060 mm.Hg/sec | heart frequency (mongrel cats [4]; 60 min after admin.): 216.0 ± 12.3 min⁻¹ | blood pressure (mongrel cats [4]; 120 min after admin.): 98.4 ± 9.0 mm.Hg | blood pressure Δ (mongrel cats [4]; 120 min after admin.): -15.4 mm.Hg | dp/dt (inotropism) (mongrel cats [4]; 120 min after admin.): 5460 ± 768 mm.Hg/sec | dp/dt (inotropism) Δ (mongrel cats [4]; 120 min after admin.): -1080 mm.Hg/sec | heart frequency (mongrel cats [4]; 120 min after admin.): 214.4 ± 11.6 min⁻¹ | LD50 at 24 h [1]: 100 to 200 mg/kg | Frequency of death (female NMRI-albino mice; 100 mg/kg i.v.): 1/3 | Frequency of death (female NMRI-albino mice; 200 mg/kg i.v.): 6/6 | activation at 25 µg/mL [2]: 214%

From patent US4363805A, “Aminodesoxy-1.4;3.6-dianhydrohexitol nitrates and pharmaceutical composition” (Firma Willmar Schwabe, priority 1980, dated 1982)
